Earlier results, collected in patent US5843891A, “Pharmaceutical acceptable compositions containing an alcohol and a hydrophobic drug” (priority 1993, dated 1998).

Conditions: in water at 20° C.

Row | solubility in water | Structure (SMILES)
1 | 0.6 g per 100 g | CCCCCCO [Example 1-hexyl, 1-hexyl]
2 | infinitely soluble | CCO [ethyl alcohol]
3 | 0.05 g per 100 g | CCCCCCCCO [1-octyl alcohol]

Row | Structure (SMILES) | solubility in water
4 | CCCCCCCCCCO [1-decyl alcohol] | essentially insoluble
